The conditions of series [1]: cited from earlier work.
Series [2] is described as follows: Solubility check in organic oil solutions (78% oil, 20% benzyl benzoate, 2% benzyl alcohol). Particulars: 25 °C; for solubility: oil or lipid, thermodynamic from solid, average of three; for solubility compared among the four esters (in words): oil solutions, comparison with the acetate ester. The format is physicochemical. On the procedure:
The solubility for the four esters (mg/mL) was measured in solutions of various organic oils: medium-chain triglyceride (MCT), grape seed oil (GSO), castor oil, cottonseed oil, apricot oil, and sesame oil.
Each solution was composed of a mixture of benzyl benzoate, benzyl alcohol, and oil having a volumetric ratio of 78% oil, 20% benzyl benzoate, and 2% benzyl alcohol. In various pharmaceutical preparations of lipophilic compounds, including various steroids, benzyl benzoate is used as a solubiliser (co-solvent), benzyl alcohol acts as a solvent and at the same time prevents microbial growth and increases the lipid solubility of various esterified compounds, while the oils are used as carriers.
In order to obtain good accuracy, three such procedures were carried out, and their average was used.

On the set-up of series [3]: method as in PMID 8095531. Particulars: microemulsion study, cited from earlier work.
[4] abbreviates: esterified forms of testosterone, intramuscular injections.
[5] abbreviates: apricot oil / benzyl benzoate / benzyl alcohol solution, apricot oil 78% / benzyl benzoate 20% / benzyl alcohol 2%, read-out: Solubility APRICOT.
The mark [6] stands for this setting: castor oil / benzyl benzoate / benzyl alcohol solution, castor oil 78% / benzyl benzoate 20% / benzyl alcohol 2%, read-out: Solubility CASTOR.
[7] abbreviates: cottonseed oil / benzyl benzoate / benzyl alcohol solution, cottonseed oil 78% / benzyl benzoate 20% / benzyl alcohol 2%, read-out: Solubility COTTON.
[8] abbreviates: grape seed oil / benzyl benzoate / benzyl alcohol solution, grape seed oil 78% / benzyl benzoate 20% / benzyl alcohol 2%, read-out: Solubility GSO.
Where [9] appears, read: medium-chain triglyceride 78% / benzyl benzoate 20% / benzyl alcohol 2%, read-out: Solubility MCT.
Where [10] appears, read: sesame oil / benzyl benzoate / benzyl alcohol solution, sesame oil 78% / benzyl benzoate 20% / benzyl alcohol 2%, read-out: Solubility SESAME.

Converted amounts (≈) assume the structure as drawn. Where two headings read alike, the source gives them in different places.

For `C[C@]12CC[C@H]3[C@@H](CCC4=CC(=O)CC[C@@]43C)[C@@H]1CC[C@@H]2O` [testosterone base, 17β-hydroxyandrost-4-en-3-one], the half-life entry in series [1] (testosterone base (no ester)) was “a few hours”.

With `CC12CCC(=O)C=C1CCC1C2CCC2(C)C(OC(=O)CCc3ccccc3)CCC12` (stereo not drawn) [TPhp, Androst-4-en-17β-ol-3-one 17β-phenylpropionate], the half-life in series [1] (setting [4]) was 60 h.

As for `CCC(=O)O[C@H]1CC[C@H]2[C@@H]3CCC4=CC(=O)CC[C@]4(C)[C@H]3CC[C@]12C` [TPro, Androst-4-en-17β-ol-3-one 17β-propionate], the solubility in series [2] (setting [5]) came to 127 mg/mL (≈ 370 mM); in series [2] (setting [6]), 194 mg/mL (≈ 564 mM); in series [2] (setting [7]), 174 mg/mL (≈ 505 mM); in series [2] (setting [8]) it was 152 mg/mL (≈ 442 mM); in series [2] (setting [9]), 185 mg/mL (≈ 538 mM); in series [2] (setting [10]) it was 189 mg/mL (≈ 548 mM). Further, in series [3], the “concentration obtained in dimethoxytetraethylene glycol” value (shortened to “concentration obtained”) was 12000 µg/mL. Further, in series [3], the “concentration supported in soybean oil” value is 3420 µg/mL. For the same molecule, the “half-life” value in series [1] (column of Table S2) and in series [1] (setting [4]) was 24 h in each case.

For the molecule `CC(=O)OC1CCC2C3CCC4=CC(=O)CCC4(C)C3CCC12C` (stereo not drawn) [TAce, Androst-4-en-17β-ol-3-one 17β-acetate], the solubility in series [2] (setting [5]) worked out at 82.5 mg/mL (≈ 250 mM); in series [2] (setting [6]), 162 mg/mL (≈ 491 mM); in series [2] (setting [7]), 98.8 mg/mL (≈ 299 mM); in series [2] (setting [8]), 98.8 mg/mL (≈ 299 mM); in series [2] (setting [9]), 120 mg/mL (≈ 365 mM); in series [2] (setting [10]), 99 mg/mL (≈ 300 mM). Besides, in series [2], the “solubility compared among the four esters (in words)” value is given as “lowest solubility”. Further, in series [1] (column of Table S2), the “Half-life (days)” value is “less than one day”. The half-life result in series [1] (setting [4]) is given as “less than 1 days”.

Take `CC(=O)O[C@]1(C(C)=O)CC[C@H]2[C@@H]3C[C@H](C)C4=CC(=O)CC[C@]4(C)[C@H]3CC[C@@]21C` [medroxyprogesterone acetate]: in series [3], the “concentration obtained” value was 1320 µg/mL and the “concentration supported in soybean oil” value was 2160 µg/mL.

Turning to `CCCCCCC(=O)O[C@H]1CC[C@H]2[C@@H]3CCC4=CC(=O)CC[C@]4(C)[C@H]3CC[C@]12C` [testosterone enanthate], in series [3], the “concentration obtained” value was 91200 µg/mL and the “concentration supported in soybean oil” value was 31500 µg/mL.

On to `CC(C)CCC(=O)OC1CCC2C3CCC4=CC(=O)CCC4(C)C3CCC12C` (stereo not drawn) [TIso, Androst-4-en-17β-ol-3-one 17β-4-methylpentanoate], for which, in series [2], the “solubility compared among the four esters (in words)” value is recorded as “roughly four-fold greater solubility”. The half-life in series [1] (setting [4]) is 74.4 h.

A word on the half-life: it is the time needed for the level to fall by half in the phase considered. One may read the solubility as the concentration that dissolves in the medium under given conditions.

Source of the values: paper PMC9611952, “Structural Aspects and Intermolecular Energy for Some Short Testosterone Esters” (Materials, 2022).
